Results reported in the NIST ThermoML archive (doi:10.1021/je800934r).
Numbers after ± are expanded uncertainties.

Assay: mn = molality of the nth substance listed, in mol/kg
Details: 101 kPa, Liquid; for viscosity: Capillary tube (Ostwald / Ubbelohde) method; for speed of sound: Pulse-echo method; for mass density: Vibrating tube method

CCCCCCCCCCCCc1ccccc1S(=O)(=O)[O-].[Na+] [sodium dodecylbenzenesulfonate (ILL DEFINED!)] + O
Details | mass density, 298.15 K [kg/m3] | mass density, 308.15 K [kg/m3] | speed of sound, 298.15 K [m/s] | speed of sound, 308.15 K [m/s] | viscosity, 298.15 K [mPa·s] | viscosity, 308.15 K [mPa·s]
m1 = 0.05 | 999.92 ± 0.4 | 996.76 ± 0.4 | 1498.7 ± 1.6 | 1522.7 ± 1.6 | 0.999 ± 0.011 | 0.795 ± 0.009
m1 = 0.1 | 1002.75 ± 0.41 | 999.44 ± 0.4 | 1500 ± 1.6 | 1523.5 ± 1.6 | 1.106 ± 0.011 | 0.868 ± 0.01
